“Also recorded” adds a separate entry of the source.
Experiments:
[1] = test system: Pseudomonas aeruginosa (PAK) in BALF; assay: PAK infection of mice, CFU determination in BALF; format: in vivo; conditions: PAK-induced pneumonia mice, BALF 2 hours after infection
Protocol: Pseudomonas aeruginosa (PAK) was grown overnight in LB broth at 37° C. with agitation, and then harvested by centrifugation at 13,000×g for 2 min. The pellet was diluted to yield 1×10^5 colony-forming unit (CFU) per 20 μL of phosphate-buffered saline (PBS) as determined by the optical density at 600 nm. The diluted bacteria were administered to BALB/c mice by intranasal injections. Bronchoalveolar lavage fluid (BALF) samples were then collected 2 hours after infection and serially diluted 1:1,000-1:10,000 with PBS and incubated overnight at 37° C. on LB agar plates. The number of viable bacteria in BALF samples were determined by counting the numbers of colonies formed on the plates.

PAK in THP-1 cells = assay: In vitro phagocytosis of PAK, THP-1 cells; format: cell-based, human; conditions: 1 hour after infection
Protocol: (§1) For CFU counting-based phagocytosis and bacterial killing assay, PAK was cultured at 37° C. overnight with continuous shaking and was resuspended in PBS. The BMDMs or THP-1 cells were incubated with PAK (MOI, 50) for different time intervals at 37° C. The cells were further cultured in the medium containing 10 μg/ml gentamycin for 30 minutes and then were lysed by 0.5% SDS. The diluted aliquots were spread on LB agar plates, and CFU was counted after incubation of the plates overnight at 37° C.

[2] = test system: Pseudomonas aeruginosa strain K (PAK) in bone marrow-derived macrophages (BMDMs); assay: In vitro phagocytosis and bacterial killing assay, BMDMs; format: cell-based; conditions: for phagocytic activity of BMDMs (intracellular PAK CFU, confocal): 100 μg/ml pretreated 1 h, PAK MOI 50 for 1 h
Protocol: For immunofluorescence-based measurement of phagocytosis and clearance, BMDMs were grown on glass coverslips in 24-well plates. The cells were infected with PAK (MOI, 50) for different time intervals and then were treated with 10 μg/ml gentamycin for 30 minutes to remove extracellular PAK attached to the cell surface. The infected cells were washed with ice-cold PBS several times, followed by fixing for 10 minutes at room temperature in methanol or 10% paraformaldehyde. The cells were stained with anti-Pseudomonas antibody (Abcam) and then were incubated with goat anti-rabbit IgG secondary antibody conjugated with Alexa Fluor 488. Slides were mounted using the mounting medium ProLong™ Gold antifade reagent with the DNA-binding blue dye DAPI (Thermo Scientific™) and were imaged with a confocal microscope (Zeiss LSM 800, Germany).
as §1
To evaluate whether PLAG accelerates phagocytosis of PAK by macrophages in vitro systems, bone marrow-derived macrophages (BMDMs) were pretreated with PLAG, and then infected with PAK (MOI, 50) for different lengths of time. Gentamycin ([…]) was treated to the cells for 30 minutes to remove extracellular bacteria. Immunofluorescence micrographs of BMDMs incubated with PAK confirmed that PLAG accelerated not only engulfment of bacteria, but also clearance of bacteria (FIG. 5A). […] PAK is recognized by toll-like receptors 4 and 5 and PAK is phagocytosed by co-cultured macrophage at 2 hrs and sustained for 4 hrs. In the PLAG treated cells, phagocytosis of PAK starts at 30 min and maximized at 1 hr and the invading PAK is cleared at 2 hrs.
For the CFU counting-based phagocytosis assay, PAK was cultured at 37° C. overnight with continuous shaking and then resuspended in PBS. BMDMs were pretreated with 100 μg/ml of PLAG or PLH for 1 hour. The cells were infected with PAK (multiplicity of infection [MOI], 50) for 1 h, and then treated with 10 μg/ml gentamycin for 30 minutes to remove extracellular PAK attached to the cell surface. Then, the cells were lysed with 0.5% SDS and serially diluted in PBS to spread on LB agar plates. CFU counts were performed after overnight incubation at 37° C.
For the immunofluorescence-based measurement of phagocytosis and clearance, BMDMs were grown on glass coverslips in 24-well plates. The cells were infected with PAK (MOI, 50) for 1 hour and then treated with 10 μg/ml gentamycin for 30 minutes to remove extracellular PAK attached to the cell surface. The infected cells were washed several times with ice-cold PBS and then fixed for 10 minutes at room temperature in methanol or 10% paraformaldehyde. The cells were then incubated with anti-Pseudomonas primary and Alexa Fluor 488-conjugated goat anti-rabbit IgG secondary antibodies. The coverslips were mounted on slides with ProLong Gold antifade reagent with DAPI (Thermo Fisher Scientific) and imaged with a confocal microscope (LSM 800; Zeiss, Germany). […]

[3] = test system: LPS-induced acute lung injury; assay: LPS-induced acute lung injury (ALI) in mice; format: in vivo; conditions: for number of neutrophils in BALF: LPS-treated mice, co-treatment
[4] = PAK MOI 50, PLAG pretreated BMDMs

| SMILES | bacterial clearance of PAK in BALF [1] | phagocytosis of PAK by THP-1 cells (PAK in THP-1 cells) | phagocytic activity of BMDMs (intracellular PAK CFU, confocal) [2] | invading PAK is cleared [2, 4] | phagocytosis of PAK maximized [2, 4] | phagocytosis of PAK starts [2, 4] | inflammatory cell infiltration into the alveolar space (H&E) ([3]; 16 hours after LPS, PLAG 250 mg/kg oral) | mRNA expression of MIP-2, S100A8, S100A9 increased by LPS ([3]; BALF cells, 16 hours) | Evans blue-stained albumin in lungs ([3]; LPS 25 mg/kg intranasal, PLAG 250 mg/kg oral) | number of neutrophils in BALF [3] | MPO activity of isolated lung tissue ([3]; vs LPS alone, PLAG 250 mg/kg oral) | neutrophil migration, PLAG treatment alone ([3]; without LPS) |
| --- | --- | --- | --- | --- | --- | --- | --- | --- | --- | --- | --- | --- |
| CCCCC/C=C\C/C=C\CCCCCCCC(=O)OC(COC(C)=O)COC(=O)CCCCCCCCCCCCCCC (racemic) [PLAG, 1-palmitoyl-2-linoleoyl-3-acetylglycerol] | showed the bacterial clearance activity; also recorded: effectively eliminated | advanced phagocytosis | most advanced phagocytosis; also recorded: most effectively enhanced | 2 h | 1 h | 30 min | considerably reduced | significantly attenuated | significantly decreased | more rapidly return to homeostasis; also recorded: dramatically reduced | significantly decreased | no effect |
| CCCCC/C=C\C/C=C\CCCCCCCC(=O)OC(CO)COC(=O)CCCCCCCCCCCCCCC (stereo not shown) [PLH, palmitic linoleic hydroxyl glycerol, reference compound] | didn't; also recorded: did not | little effect | little effect |  |  |  |  |  |  | no effect |  |  |
